# Experimental data reported in article PMC7734590, “Identification of a Selective RelA Inhibitor Based on DSE-FRET Screening Methods” (International Journal of Molecular Sciences, 2020).
# Where “and” joins values, the source holds several entries; their conditions need not be identical. Equal values may be shown once. Where a name gives a salt, the structure may show the parent alone. Read-outs that look alike come from different tables or passages of the source.
# What was measured:
# RelA = RelA (Homo sapiens, UniProt Q04206); experiment: DSE-FRET RelA–DNA binding inhibition; type: biochemical; set-up: Kinetic assay RelA Inhibition % ΔRFU(60 min-0 min) / RelA HTS % Inhibition / RelA Retest % Inhibition Run1 / RelA Retest % Inhibition Run2 / RelA Retest % Inhibition Avg. / Kinetic assay RelA % Inhibition ΔRFU(60 min-0 min): dose or concentration left out as unconfirmed; conditions: for RelA Retest % Inhibition Avg.: Retest average of Run1 and Run2
# Method: (§1) Plate-based (384 scale) DNA-binding experiments were carried out with 0.1 µL of 2 mM or 1 mg/mL compound, 2 µL of 80 nM NF-D1 (consisting of NF-01F and NF-14D), 1 µL of 20 ng/µL poly dI-dC, and 6.9 µL of 3.2 pmol protein in binding buffer (10 mM 4-(2-hydroxyethyl)-1-piperazineethanesulfonic acid (HEPES)–NaOH pH 7.9, 50 mM KCl, 0.1 mM ethylenediaminetetraacetic acid (EDTA), 2.5 mM dithiothreitol (DTT), 10% glycerol, and 0.05% Nonidet P40). The plates were incubated for 30 min at room temperature, after which 10 µL of NF-D2 (consisting of NF-02 and NF-13) was added. The plates were centrifuged at 1000 rpm for 30 s, followed by shaking for 30 s using a plate shaker (Biotec). Fluorescence was measured at 528 nm, after excitation at 485 nm, using a multiplate reader (Biotec) over a period of 60 min.
# p52 = target: T1, p52 (Homo sapiens, UniProt Q00653); experiment: DSE-FRET p52–DNA binding inhibition; type: biochemical; set-up: p52 Retest % Inhibition Run2 / p52 Retest % Inhibition Avg. / Kinetic assay p52 Inhibition % ΔRFU(60 min-0 min) / p52 HTS % Inhibition / p52 Retest % Inhibition Run1: dose or concentration left out as unconfirmed; conditions: for p52 Retest % Inhibition Avg.: Retest average of Run1 and Run2
# T1 sequence (Q00653 1-454 limits assumed): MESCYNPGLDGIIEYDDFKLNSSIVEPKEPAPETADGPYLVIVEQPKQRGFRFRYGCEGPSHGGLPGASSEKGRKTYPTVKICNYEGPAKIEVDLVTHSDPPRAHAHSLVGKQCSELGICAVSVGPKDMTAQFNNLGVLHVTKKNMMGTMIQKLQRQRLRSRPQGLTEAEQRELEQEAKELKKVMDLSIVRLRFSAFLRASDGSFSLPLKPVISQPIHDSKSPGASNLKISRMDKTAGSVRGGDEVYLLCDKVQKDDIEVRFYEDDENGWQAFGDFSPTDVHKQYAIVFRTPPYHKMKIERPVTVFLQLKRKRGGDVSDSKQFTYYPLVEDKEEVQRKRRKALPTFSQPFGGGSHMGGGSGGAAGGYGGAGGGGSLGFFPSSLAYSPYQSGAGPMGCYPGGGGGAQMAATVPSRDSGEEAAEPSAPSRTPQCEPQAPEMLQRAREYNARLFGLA
# Method: as §1
# [1] = HTS, known drugs, 10 µM, read-out: RelA HTS % Inhibition @ 10 µM
# [2] = kinetic assay, 60 min-0 min, 10 µM, read-out: Kinetic assay @ 10 µM RelA % Inhibition ΔRFU(60 min-0 min)
# [3] = retest, Run1, 10 µM, read-out: RelA Retest % Inhibition @ 10 µM Run1
# [4] = retest, Run2, 10 µM, read-out: RelA Retest % Inhibition @ 10 µM Run2
# [5] = retest, average of Run1 and Run2, 10 µM, read-out: RelA Retest % Inhibition @ 10 µM Avg.
# [6] = HTS, known drugs, 10 µM, read-out: p52 HTS % Inhibition @ 10 µM
# [7] = kinetic assay, 60 min-0 min, 10 µM, read-out: Kinetic assay @ 10 µM p52 % Inhibition ΔRFU(60 min-0 min)
# [8] = retest, Run1, 10 µM, read-out: p52 Retest % Inhibition @ 10 µM Run1
# [9] = retest, Run2, 10 µM, read-out: p52 Retest % Inhibition @ 10 µM Run2
# [10] = retest, average of Run1 and Run2, 10 µM, read-out: p52 Retest % Inhibition @ 10 µM Avg.
# [11] = retest of known drugs, 1 = judged hit
# [12] = kinetic assay, ΔRFU 60 min-0 min
# [13] = HTS, 5 µg/mL, NPDepo hits, read-out: RelA HTS % Inhibition @ 5 µg/mL
# [14] = Retest Run1, 5 µg/mL, read-out: RelA Retest % Inhibition @ 5 µg/mL Run1
# [15] = Retest Run2, 5 µg/mL, read-out: RelA Retest % Inhibition @ 5 µg/mL Run2
# [16] = Retest average of Run1 and Run2, 5 µg/mL, read-out: RelA Retest % Inhibition @ 5 µg/mL Avg.
# [17] = kinetic assay, 5 µg/mL, ΔRFU 60 min-0 min, read-out: Kinetic assay @ 5 µg/mL RelA Inhibition % ΔRFU(60 min-0 min)
# RelA, sequence (Q04206 19-306 limits assumed): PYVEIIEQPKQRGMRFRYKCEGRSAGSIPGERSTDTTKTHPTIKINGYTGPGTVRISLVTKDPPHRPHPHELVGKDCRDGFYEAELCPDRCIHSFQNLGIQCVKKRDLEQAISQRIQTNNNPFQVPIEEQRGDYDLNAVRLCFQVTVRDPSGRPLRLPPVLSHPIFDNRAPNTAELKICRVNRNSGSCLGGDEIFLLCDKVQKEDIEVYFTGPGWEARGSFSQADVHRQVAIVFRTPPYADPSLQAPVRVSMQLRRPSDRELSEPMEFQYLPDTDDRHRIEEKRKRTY
molecule,measurement,setting,value
Cc1cc(-c2ccc(/N=N/c3ccc4c(S(=O)(=O)O)cc(S(=O)(=O)O)c(N)c4c3O)c(C)c2)ccc1/N=N/c1ccc2c(S(=O)(=O)O)cc(S(=O)(=O)O)c(N)c2c1O [EVANS BLUE],inhibition at 10 µM,RelA; [1],78.1%
same,inhibition at 10 µM,RelA; [2],4.59%
same,inhibition at 10 µM,RelA; [3],70.4%
same,inhibition at 10 µM,RelA; [4],77.2%
same,inhibition at 10 µM,RelA; [5],73.8%
same,inhibition at 10 µM,p52; [6],24%
same,inhibition at 10 µM,p52; [7],2.44%
same,inhibition at 10 µM,p52; [8],62.3%
same,inhibition at 10 µM,p52; [9],35.8%
same,inhibition at 10 µM,p52; [10],49%
O=C1C(Cl)=C(NCCN2CCOCC2)C(=O)c2ncccc21 [NSC 663284],RelA HTS % Inhibition,"RelA; HTS, known drugs",37.5%
same,RelA Retest % Inhibition Run1,RelA,37.2%
same,RelA Retest % Inhibition Run2,RelA,41.8%
same,RelA Retest % Inhibition Avg.,RelA,39.5%
same,Kinetic assay RelA % Inhibition ΔRFU(60 min-0 min),"RelA; kinetic assay, 60 min-0 min",9%
same,Hit Judgement of: RelA,RelA; [11],1
same,p52 HTS % Inhibition,"p52; HTS, known drugs",39.5%
same,p52 Retest % Inhibition Run1,p52,24.9%
same,p52 Retest % Inhibition Run2,p52,28.6%
same,p52 Retest % Inhibition Avg.,p52,26.7%
same,Kinetic assay p52 % Inhibition ΔRFU(60 min-0 min),"p52; kinetic assay, 60 min-0 min",1.64%
same,Hit Judgement of: p52,p52; [11],1
CC[C@@]1(O)C(=O)OCc2c1cc1n(c2=O)Cc2cc3c(CN(C)C)c(O)ccc3nc2-1 [Topotecan],inhibition at 10 µM,RelA; [1],91.4%
same,inhibition at 10 µM,RelA; [2],-4.46%
same,inhibition at 10 µM,RelA; [3],99.3%
same,inhibition at 10 µM,RelA; [4],109%
same,inhibition at 10 µM,RelA; [5],104%
same,inhibition at 10 µM,p52; [6],74.5%
same,inhibition at 10 µM,p52; [7],-3.67%
same,inhibition at 10 µM,p52; [8],94.6%
same,inhibition at 10 µM,p52; [9],104%
same,inhibition at 10 µM,p52; [10],99.1%
COc1cccc2c1C(=O)c1c(O)c3c(c(O)c1C2=O)C[C@@](O)(C(=O)CO)C[C@@H]3O[C@H]1C[C@H](N)[C@@H](O)[C@H](C)O1 [EPIRUBICIN HYDROCHLORIDE],inhibition at 10 µM,RelA; [1],82.2%
same,inhibition at 10 µM,RelA; [2],-11%
same,inhibition at 10 µM,RelA; [3],77.3%
same,inhibition at 10 µM,RelA; [4],88.4%
same,inhibition at 10 µM,RelA; [5],82.9%
same,inhibition at 10 µM,p52; [6],88.4%
same,inhibition at 10 µM,p52; [7],-11%
same,inhibition at 10 µM,p52; [8],77.2%
same,inhibition at 10 µM,p52; [9],88.8%
same,inhibition at 10 µM,p52; [10],83%
Cc1[nH]c(/C=C2\C(=O)Nc3ccc(S(=O)(=O)Cc4c(Cl)cccc4Cl)cc32)c(C)c1C(=O)N1CCC[C@@H]1CN1CCCC1 [PHA 665752],inhibition at 10 µM,RelA; [1],101%
same,inhibition at 10 µM,RelA; [2],-27%
same,inhibition at 10 µM,RelA; [3],88.6%
same,inhibition at 10 µM,RelA; [4],99.1%
same,inhibition at 10 µM,RelA; [5],93.9%
same,inhibition at 10 µM,p52; [6],103%
same,inhibition at 10 µM,p52; [7],-31%
same,inhibition at 10 µM,p52; [8],88%
same,inhibition at 10 µM,p52; [9],99.8%
same,inhibition at 10 µM,p52; [10],93.9%
OCCN(CCO)c1nc(N2CCCCC2)c2nc(N(CCO)CCO)nc(N3CCCCC3)c2n1 [Dipyridamole],Kinetic assay RelA % Inhibition ΔRFU(60 min-0 min),"RelA; kinetic assay, 60 min-0 min",-4.24% and -5.31%
same,Kinetic assay p52 % Inhibition ΔRFU(60 min-0 min),"p52; kinetic assay, 60 min-0 min",-0.806% and -5%
SN 38,Kinetic assay RelA % Inhibition ΔRFU(60 min-0 min),"RelA; kinetic assay, 60 min-0 min",-0.814%
same,Kinetic assay p52 % Inhibition ΔRFU(60 min-0 min),"p52; kinetic assay, 60 min-0 min",-2%
O=C(O[C@H]1C[C@H]2CC[C@@H](C1)[N+]21CCCC1)C(O)(c1ccccc1)c1ccccc1 [TROSPIUM CHLORIDE],inhibition at 10 µM,RelA; [1],108%
same,inhibition at 10 µM,p52; [6],116%
O=C1NC(=O)c2c1c1c3ccccc3n3c1c1c2c2ccccc2n1C1CCC3O1 [SB 218078],Kinetic assay RelA % Inhibition ΔRFU(60 min-0 min),"RelA; kinetic assay, 60 min-0 min",13%
same,Kinetic assay p52 % Inhibition ΔRFU(60 min-0 min),"p52; kinetic assay, 60 min-0 min",5%
Nc1ccc2nc3ccc(N)cc3[n+](-c3ccccc3)c2c1.[Cl-] [Phenosafranin],RelA HTS % Inhibition,"RelA; HTS, NPDepo hits",99.3%
same,RelA Retest % Inhibition Run1,RelA,77.2%
same,RelA Retest % Inhibition Run2,RelA,83.4%
same,RelA Retest % Inhibition Avg.,RelA,80.3%
same,Kinetic assay RelA Inhibition % ΔRFU(60 min-0 min),RelA; [12],-12%
same,p52 HTS % Inhibition,"p52; HTS, NPDepo hits",86.7%
same,p52 Retest % Inhibition Run1,p52,78.7%
same,p52 Retest % Inhibition Run2,p52,85.1%
same,p52 Retest % Inhibition Avg.,p52,81.9%
same,Kinetic assay p52 Inhibition % ΔRFU(60 min-0 min),p52; [12],-3.56%
Cc1cc(-c2ccc(/N=N/c3c(S(=O)(=O)O)cc4cc(S(=O)(=O)O)cc(N)c4c3O)c(C)c2)ccc1/N=N/c1c(S(=O)(=O)O)cc2cc(S(=O)(=O)O)cc(N)c2c1O [Trypan blue],Hit Judgement of: RelA,RelA; 1 = judged hit after retest,1
same,inhibition at 5 µg/mL,RelA; [13],54.8%
same,inhibition at 5 µg/mL,RelA; [14],62%
same,inhibition at 5 µg/mL,RelA; [15],69%
same,inhibition at 5 µg/mL,RelA; [16],65.5%
same,inhibition at 5 µg/mL,RelA; [17],26%
same,Hit Judgement of: p52,p52; 1 = judged hit after retest,1
same,inhibition at 5 µg/mL,"p52; HTS, 5 µg/mL, NPDepo hits, read-out: p52 HTS % Inhibition @ 5 µg/mL",2.8%
same,inhibition at 5 µg/mL,"p52; Retest Run1, 5 µg/mL, read-out: p52 Retest % Inhibition @ 5 µg/mL Run1",15.1%
same,inhibition at 5 µg/mL,"p52; Retest Run2, 5 µg/mL, read-out: p52 Retest % Inhibition @ 5 µg/mL Run2",16.4%
same,inhibition at 5 µg/mL,"p52; Retest average of Run1 and Run2, 5 µg/mL, read-out: p52 Retest % Inhibition @ 5 µg/mL Avg.",15.8%
same,inhibition at 5 µg/mL,"p52; kinetic assay, 5 µg/mL, ΔRFU 60 min-0 min, read-out: Kinetic assay @ 5 µg/mL p52 Inhibition % ΔRFU(60 min-0 min)",7%
CCN(CC)CCCC(C)Nc1c2ccc(Cl)cc2nc2ccc(OC)cc12 (stereo not shown) [Quinacrine dihydrochloride dihydrate],Kinetic assay RelA % Inhibition ΔRFU(60 min-0 min),"RelA; kinetic assay, 60 min-0 min",-17%
same,Kinetic assay p52 % Inhibition ΔRFU(60 min-0 min),"p52; kinetic assay, 60 min-0 min",-17%
CC1(C)C(=O)N=C2C1=C(O)C(=O)c1ccccc12 [BVT 948],RelA HTS % Inhibition,"RelA; HTS, known drugs",34.4%
same,RelA Retest % Inhibition Run1,RelA,48.4%
same,RelA Retest % Inhibition Run2,RelA,67.6%
same,RelA Retest % Inhibition Avg.,RelA,58.0%
same,Kinetic assay RelA % Inhibition ΔRFU(60 min-0 min),"RelA; kinetic assay, 60 min-0 min",21%
same,Hit Judgement of: RelA,RelA; [11],1
same,p52 HTS % Inhibition,"p52; HTS, known drugs",38.2%
same,p52 Retest % Inhibition Run1,p52,22.0%
same,p52 Retest % Inhibition Run2,p52,33.7%
same,p52 Retest % Inhibition Avg.,p52,27.8%
same,Kinetic assay p52 % Inhibition ΔRFU(60 min-0 min),"p52; kinetic assay, 60 min-0 min",7%
same,Hit Judgement of: p52,p52; [11],1
O=C(O)c1cc(O)c2c(c1)[C@@H]([C@H]1c3cc(C(=O)O)cc(O)c3C(=O)c3c(O[C@@H]4O[C@H](CO)[C@@H](O)[C@H](O)[C@H]4O)cccc31)c1cccc(O[C@@H]3O[C@H](CO)[C@@H](O)[C@H](O)[C@H]3O)c1C2=O [Sennoside B],Hit Judgement of: RelA,RelA; 1 = judged hit after retest,1
same,inhibition at 5 µg/mL,RelA; [13],87.4%
same,inhibition at 5 µg/mL,RelA; [14],74.5%
same,inhibition at 5 µg/mL,RelA; [15],85.1%
same,inhibition at 5 µg/mL,RelA; [16],79.8%
same,inhibition at 5 µg/mL,RelA; [17],73%
same,Hit Judgement of: p52,p52; 1 = judged hit after retest,1
